Reference: patent US20230085307A1, “PYRIDAZINONE COMPOUND AND HERBICIDE” (NISSAN CHEMICAL CORPORATION, priority 2019, published 2023)

Assays:
persian speedwell [1] = assay: Test Example 4: herbicidal effect by soil treatment (Table 19, symbol R); format: in vivo, Persian speedwell (Veronica persica); details: amount of applied herbicide 320 g/ha
How it was run: (§1)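 Step 1: sow seeds in sterilized diluvial soil, cover ~1.5 cm. Step 2: spray diluted emulsion onto soil surface at predetermined rate. Step 3: greenhouse, 25–30° C, three weeks. Step 4: grade effect on each plant by earlier criteria.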

false cleavers = assay: Test Example 4: herbicidal effect by soil treatment (Table 19, symbol Q); format: in vivo, false cleavers (Galium spurium); details: amount of applied herbicide 320 g/ha
How it was run: as §1

blackgrass [2] = assay: Test Example 5: herbicidal effect by foliage application, plastic box (Table 20, symbol J); format: in vivo, blackgrass (Alopecurus myosuroides); details: amount of applied herbicide 320 g/ha; foliage application after 14-day growth; evaluated three weeks after application
How it was run: (§2)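 Foliar spray test: emulsion formulation diluted in water to a set application rate, sprayed onto 14-day-old plants raised in diluvial soil at 25° C to 30° C under glass. Both herbicidal effect and crop effect rated visually three weeks later.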

wild oat [3] = assay: Test Example 5: herbicidal effect by foliage application, plastic box (Table 20, symbol I); format: in vivo, wild oat (Avena fatua); details: amount of applied herbicide 320 g/ha; foliage application after 14-day growth; evaluated three weeks after application
How it was run: as §2

Chinese sprangletop = assay: Test Example 3: herbicidal effect by foliage application, Wagner pot (Table 18, symbol D); format: in vivo, chinese sprangletop (Leptochloa chinensis); details: 320 g/ha
How it was run: (§3)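 Plants were sown in alluvial soil held under 0.1–0.5 cm standing water and grown 14 days in a greenhouse at 25–30 °C. An emulsifiable formulation, water-diluted to the set dose, was then sprayed onto the foliage, and effects were scored three weeks later using previously defined criteria.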

green foxtail [4] = assay: Test Example 5: herbicidal effect by foliage application, plastic box (Table 20, symbol G); format: in vivo, green foxtail (Setaria viridis); details: amount of applied herbicide 320 g/ha; foliage application after 14-day growth; evaluated three weeks after application
How it was run: as §2

rice flat sedge = assay: Test Example 3: herbicidal effect by foliage application, Wagner pot (Table 18, symbol E); format: in vivo, rice flat sedge (Cyperus iria); details: 320 g/ha
How it was run: as §3

barnyard grass [5] = assay: Test Example 5: herbicidal effect by foliage application, plastic box (Table 20, symbol H); format: in vivo, barnyard grass (Echinochloa crus-galli); details: amount of applied herbicide 320 g/ha; foliage application after 14-day growth; evaluated three weeks after application
How it was run: as §2

redroot pigweed [6] = assay: Test Example 5: herbicidal effect by foliage application, plastic box (Table 20, symbol N); format: in vivo, redroot pigweed (Amaranthus retroflexus); details: amount of applied herbicide 320 g/ha; foliage application after 14-day growth; evaluated three weeks after application
How it was run: as §2

Japanese bulrush = assay: Test Example 1: herbicidal activity, application before weed generation under submerged conditions (Table 16, symbol B); format: in vivo, Japanese bulrush (Schoenoplectus juncoides); details: amount of applied herbicide 320 g/ha
How it was run: (§4)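 Emulsion formulation, water-diluted to set dose, was put onto the flooded surface (4 cm depth, alluvial soil) the same day weeds were sown and 2.5-leaf rice transplanted. After 3 weeks at 25-30 °C under glass, each species was rated 0 (≤5% kill) to 5 (≥90% kill).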

velvetleaf [7] = assay: Test Example 5: herbicidal effect by foliage application, plastic box (Table 20, symbol M); format: in vivo, velvetleaf (Abutilon theophrasti); details: amount of applied herbicide 320 g/ha; foliage application after 14-day growth; evaluated three weeks after application
How it was run: as §2

redroot pigweed [8] = assay: Test Example 4: herbicidal effect by soil treatment (Table 19, symbol N); format: in vivo, redroot pigweed (Amaranthus retroflexus); details: amount of applied herbicide 320 g/ha
How it was run: as §1

barnyard grass [9] = assay: Test Example 3: herbicidal effect by foliage application, Wagner pot (Table 18, symbol H); format: in vivo, barnyard grass (Echinochloa crus-galli); details: 320 g/ha
How it was run: as §3

persian speedwell [10] = assay: Test Example 5: herbicidal effect by foliage application, plastic box (Table 20, symbol R); format: in vivo, Persian speedwell (Veronica persica); details: amount of applied herbicide 320 g/ha; foliage application after 14-day growth; evaluated three weeks after application
How it was run: as §2

wild oat [11] = assay: Test Example 4: herbicidal effect by soil treatment (Table 19, symbol I); format: in vivo, wild oat (Avena fatua); details: amount of applied herbicide 320 g/ha
How it was run: as §1

barnyard grass [12] = assay: Test Example 4: herbicidal effect by soil treatment (Table 19, symbol H); format: in vivo, barnyard grass (Echinochloa crus-galli); details: amount of applied herbicide 320 g/ha
How it was run: as §1

Italian ryegrass [13] = assay: Test Example 5: herbicidal effect by foliage application, plastic box (Table 20, symbol K); format: in vivo, Italian ryegrass (Lolium multiflorum); details: amount of applied herbicide 320 g/ha; foliage application after 14-day growth; evaluated three weeks after application
How it was run: as §2

windgrass [14] = assay: Test Example 4: herbicidal effect by soil treatment (Table 19, symbol L); format: in vivo, windgrass (Apera spica-venti); details: amount of applied herbicide 320 g/ha
How it was run: as §1

Italian ryegrass [15] = assay: Test Example 4: herbicidal effect by soil treatment (Table 19, symbol K); format: in vivo, Italian ryegrass (Lolium multiflorum); details: amount of applied herbicide 320 g/ha
How it was run: as §1

blackgrass [16] = assay: Test Example 4: herbicidal effect by soil treatment (Table 19, symbol J); format: in vivo, blackgrass (Alopecurus myosuroides); details: amount of applied herbicide 320 g/ha
How it was run: as §1

chickweed [17] = assay: Test Example 4: herbicidal effect by soil treatment (Table 19, symbol P); format: in vivo, common chickweed (Stellaria media); details: amount of applied herbicide 320 g/ha
How it was run: as §1

oval-leafed pondweed = assay: Test Example 1: herbicidal activity, application before weed generation under submerged conditions (Table 16, symbol C); format: in vivo, oval-leafed pondweed (Monochoria vaginalis); details: amount of applied herbicide 320 g/ha
How it was run: as §4

green foxtail [18] = assay: Test Example 4: herbicidal effect by soil treatment (Table 19, symbol G); format: in vivo, green foxtail (Setaria viridis); details: amount of applied herbicide 320 g/ha
How it was run: as §1

southern crabgrass [19] = assay: Test Example 5: herbicidal effect by foliage application, plastic box (Table 20, symbol F); format: in vivo, southern crabgrass (Digitaria ciliaris); details: amount of applied herbicide 320 g/ha; foliage application after 14-day growth; evaluated three weeks after application
How it was run: as §2

lambsquarters [20] = assay: Test Example 5: herbicidal effect by foliage application, plastic box (Table 20, symbol O); format: in vivo, lambsquarters (Chenopodium album); details: amount of applied herbicide 320 g/ha; foliage application after 14-day growth; evaluated three weeks after application
How it was run: as §2

lambsquarters [21] = assay: Test Example 4: herbicidal effect by soil treatment (Table 19, symbol O); format: in vivo, lambsquarters (Chenopodium album); details: amount of applied herbicide 320 g/ha
How it was run: as §1

southern crabgrass [22] = assay: Test Example 4: herbicidal effect by soil treatment (Table 19, symbol F); format: in vivo, southern crabgrass (Digitaria ciliaris); details: amount of applied herbicide 320 g/ha
How it was run: as §1

chickweed [23] = assay: Test Example 5: herbicidal effect by foliage application, plastic box (Table 20, symbol P); format: in vivo, common chickweed (Stellaria media); details: amount of applied herbicide 320 g/ha; foliage application after 14-day growth; evaluated three weeks after application
How it was run: as §2

velvetleaf [24] = assay: Test Example 4: herbicidal effect by soil treatment (Table 19, symbol M); format: in vivo, velvetleaf (Abutilon theophrasti); details: amount of applied herbicide 320 g/ha
How it was run: as §1

windgrass [25] = assay: Test Example 5: herbicidal effect by foliage application, plastic box (Table 20, symbol L); format: in vivo, windgrass (Apera spica-venti); details: amount of applied herbicide 320 g/ha; foliage application after 14-day growth; evaluated three weeks after application
How it was run: as §2

late watergrass = assay: Test Example 1: herbicidal activity, application before weed generation under submerged conditions (Table 16, symbol A); format: in vivo, late watergrass (Echinochloa oryzicola); details: amount of applied herbicide 320 g/ha
How it was run: as §4

Structure (SMILES) | R: persian speedwell, herbicidal effect grade (persian speedwell [1]) | Q: false cleavers, herbicidal effect grade (false cleavers) | Herbicidal effect by foliage application, J: blackgrass (blackgrass [2]) | Herbicidal effect by foliage application, I: wild oat (wild oat [3]) | herbicidal effect on Chinese sprangletop (D) (Chinese sprangletop) | Herbicidal effect by foliage application, G: green foxtail (green foxtail [4]) | herbicidal effect on rice flat sedge (E) (rice flat sedge) | Herbicidal effect by foliage application, H: barnyard grass (barnyard grass [5]) | Herbicidal effect by foliage application, N: redroot pigweed (redroot pigweed [6]) | Herbicidal effect, B: Japanese bulrush (Japanese bulrush) | Herbicidal effect by foliage application, M: velvetleaf (velvetleaf [7]) | N: redroot pigweed, herbicidal effect grade (redroot pigweed [8]) | herbicidal effect on barnyard grass (H) (barnyard grass [9]) | Herbicidal effect by foliage application, R: persian speedwell (persian speedwell [10]) | I: wild oat, herbicidal effect grade (wild oat [11]) | H: barnyard grass, herbicidal effect grade (barnyard grass [12]) | Herbicidal effect by foliage application, K: Italian ryegrass (Italian ryegrass [13]) | L: windgrass, herbicidal effect grade (windgrass [14]) | K: Italian ryegrass, herbicidal effect grade (Italian ryegrass [15]) | J: blackgrass, herbicidal effect grade (blackgrass [16]) | other results
CCCC(=O)Oc1c(C)nn(C)c(=O)c1-c1c(-c2ccc3c(c2)OCO3)sc2cc(F)c(F)cc12 [5-036] | 3 (Herbicidal rate of 40% or more and less than 70%) | 0 (Herbicidal rate of 5% or less (almost no effect)) | 0 (Herbicidal rate of 5% or less (almost no effect)) | 0 (Herbicidal rate of 5% or less (almost no effect)) | 0 (Herbicidal rate of 5% or less (almost no effect)) | 0 (Herbicidal rate of 5% or less (almost no effect)) | 0 (Herbicidal rate of 5% or less (almost no effect)) | 0 (Herbicidal rate of 5% or less (almost no effect)) | 1 (Herbicidal rate of 5% or more and less than 20%) | 2 (Herbicidal rate of 20% or more and less than 40%) | 3 (Herbicidal rate of 40% or more and less than 70%) | 4 (Herbicidal rate of 70% or more and less than 90%) | 2 (Herbicidal rate of 20% or more and less than 40%) | 5 (Herbicidal rate of 90% or more (almost completely withered)) | 0 (Herbicidal rate of 5% or less (almost no effect)) | 0 (Herbicidal rate of 5% or less (almost no effect)) | 0 (Herbicidal rate of 5% or less (almost no effect)) | 0 (Herbicidal rate of 5% or less (almost no effect)) | 0 (Herbicidal rate of 5% or less (almost no effect)) | 0 (Herbicidal rate of 5% or less (almost no effect)) | P: chickweed, herbicidal effect grade (chickweed [17]): 3 (Herbicidal rate of 40% or more and less than 70%); Herbicidal effect, C: oval-leafed pondweed (oval-leafed pondweed): 2 (Herbicidal rate of 20% or more and less than 40%); G: green foxtail, herbicidal effect grade (green foxtail [18]): 1 (Herbicidal rate of 5% or more and less than 20%); Herbicidal effect by foliage application, F: southern crabgrass (southern crabgrass [19]): 0 (Herbicidal rate of 5% or less (almost no effect)); Herbicidal effect by foliage application, O: lambsquarters (lambsquarters [20]): 3 (Herbicidal rate of 40% or more and less than 70%); O: lambsquarters, herbicidal effect grade (lambsquarters [21]): 3 (Herbicidal rate of 40% or more and less than 70%); F: southern crabgrass, herbicidal effect grade (southern crabgrass [22]): 0 (Herbicidal rate of 5% or less (almost no effect)); Herbicidal effect by foliage application, P: chickweed (chickweed [23]): 5 (Herbicidal rate of 90% or more (almost completely withered)); M: velvetleaf, herbicidal effect grade (velvetleaf [24]): 0 (Herbicidal rate of 5% or less (almost no effect)); Herbicidal effect by foliage application, L: windgrass (windgrass [25]): 0 (Herbicidal rate of 5% or less (almost no effect)); Herbicidal effect, A: late watergrass (late watergrass): 2 (Herbicidal rate of 20% or more and less than 40%)
CCCC(=O)Oc1c(C)nn(C)c(=O)c1-c1c(-c2ccc(F)cc2OC)sc2cc(F)c(F)cc12 [5-030] | 5 (Herbicidal rate of 90% or more (almost completely withered)) | 0 (Herbicidal rate of 5% or less (almost no effect)) | 4 (Herbicidal rate of 70% or more and less than 90%) | 0 (Herbicidal rate of 5% or less (almost no effect)) | 0 (Herbicidal rate of 5% or less (almost no effect)) | 0 (Herbicidal rate of 5% or less (almost no effect)) | 0 (Herbicidal rate of 5% or less (almost no effect)) | 2 (Herbicidal rate of 20% or more and less than 40%) | 3 (Herbicidal rate of 40% or more and less than 70%) | 1 (Herbicidal rate of 5% or more and less than 20%) | 3 (Herbicidal rate of 40% or more and less than 70%) | 5 (Herbicidal rate of 90% or more (almost completely withered)) | 4 (Herbicidal rate of 70% or more and less than 90%) | 0 (Herbicidal rate of 5% or less (almost no effect)) | 0 (Herbicidal rate of 5% or less (almost no effect)) | 2 (Herbicidal rate of 20% or more and less than 40%) | 0 (Herbicidal rate of 5% or less (almost no effect)) | 5 (Herbicidal rate of 90% or more (almost completely withered)) | 0 (Herbicidal rate of 5% or less (almost no effect)) | 5 (Herbicidal rate of 90% or more (almost completely withered)) | P: chickweed, herbicidal effect grade (chickweed [17]): 5 (Herbicidal rate of 90% or more (almost completely withered)); Herbicidal effect, C: oval-leafed pondweed (oval-leafed pondweed): 0 (Herbicidal rate of 5% or less (almost no effect)); G: green foxtail, herbicidal effect grade (green foxtail [18]): 4 (Herbicidal rate of 70% or more and less than 90%); Herbicidal effect by foliage application, F: southern crabgrass (southern crabgrass [19]): 0 (Herbicidal rate of 5% or less (almost no effect)); Herbicidal effect by foliage application, O: lambsquarters (lambsquarters [20]): 3 (Herbicidal rate of 40% or more and less than 70%); O: lambsquarters, herbicidal effect grade (lambsquarters [21]): 5 (Herbicidal rate of 90% or more (almost completely withered)); F: southern crabgrass, herbicidal effect grade (southern crabgrass [22]): 1 (Herbicidal rate of 5% or more and less than 20%); Herbicidal effect by foliage application, P: chickweed (chickweed [23]): 5 (Herbicidal rate of 90% or more (almost completely withered)); M: velvetleaf, herbicidal effect grade (velvetleaf [24]): 3 (Herbicidal rate of 40% or more and less than 70%); Herbicidal effect by foliage application, L: windgrass (windgrass [25]): 5 (Herbicidal rate of 90% or more (almost completely withered)); Herbicidal effect, A: late watergrass (late watergrass): 3 (Herbicidal rate of 40% or more and less than 70%)
